For one test, the system named is Th1 cells. As to the kind of experiment: Th1 polarization, IFN-γ by flow cytometry (Figure 1F). It is filed as cell-based, mouse. As for the experimental part: Naive CD4^+ T cells were isolated from the spleens of C57BL/6J or CD45.1^+ OT-II mice using the MojoSort Mouse CD4 Naive T Cell Isolation Kit (BioLegend, catalog 480040), following the manufacturer’s protocol. Purified cells were cultured in RPMI-1640 medium supplemented with 10% FBS, 1% penicillin-streptomycin, and 0.1% β-mercaptoethanol (Gibco, catalog 21985023).
T cell polarization was initiated under plate-bound anti-CD3 (2 μg/mL, clone 17A2, BioXCell, catalog BE0002) and soluble anti-CD28 (1 μg/mL, clone 37.51, BioXCell, catalog BE0015-1) stimulation, with the addition of cytokines and neutralizing antibodies specific to each subset. For Th9 cells, these included IL-4 (10 ng/mL, Peprotech, catalog 400-04), TGF-β (1 ng/mL, EPOTO Biotech, catalog HF-2021), anti–IL-12 (5 μg/mL, clone C17.8, BioXCell, catalog BE0051), and anti–IFN-γ (10 μg/mL, clone XMG1.2, BioXCell, catalog BE0055); for Th1 cells, these included IL-12 (10 ng/mL, GenScript, catalog Z03211-50) and anti–IL-4 (5 μg/mL, clone 11B11, BioXCell, catalog BE0045); for Th2 cells, these included IL-4 (50 ng/mL), anti–IFN-γ (20 μg /mL), anti–IL-12 (5 μg/mL), Th17 cells: IL-6 (20 ng/mL, EPOTO Biotech, catalog MF-1006), TGF-β (1 ng/mL), IL-1β (10 ng/mL, Peprotech, catalog AF-211-11B), anti–IFN-γ (10 μg/mL), anti–IL-12 (5 μg/mL), and anti–IL-4 (5 μg/mL); and for Tregs, these included TGF-β (3 ng/mL). […]

The test system of test [1] is Il9 and Tnf mRNA in Th9 cells. The test is described as follows: Quantitative PCR of Il9 and Tnf mRNA with fatostatin or SREBP1 overexpression (Figure 7B, 7H, 7I). It counts as cell-based, mouse. As for the experimental part:
For murine T cell transduction, MIGR1-based retroviral vector encoding Srebf1 was used. HEK293T cells were transfected with these constructs using Lipofectamine 3000 (Thermo Fisher Scientific) to produce viral particles. Supernatants were collected between 48 and 72 hours after transfection, filtered through a 0.45 μm membrane, and stored at –80°C. Naive murine CD4^+ T cells were activated with plate-bound anti-CD3 (2 μg/mL, clone 17A2, BioXCell) and soluble anti-CD28 (1 μg/mL, clone 37.51, BioXCell) stimulation in the presence of subset-specific polarizing cytokines and then transduced with viral supernatant supplemented with polybrene (10 μg/mL).
(§1) Total RNA was extracted from T cells using RNAex Pro Reagent (AG, catalog AG21102) following the manufacturer’s instructions. First-strand complementary DNA (cDNA) was synthesized using the Hifair III 1st Strand cDNA Synthesis SuperMix (YEASEN, catalog 11137ES10). Quantitative real-time PCR (qRT-PCR) was conducted on a QuantStudio 3 Real-Time PCR System (Thermo Fisher Scientific) using ChamQ Universal SYBR qPCR Master Mix (Vazyme, catalog Q711-02) and gene-specific primers (Tsingke Biotech).
(§2) For normalization, mouse samples were referenced to Gapdh or Actb, and human samples were normalized to GAPDH. Relative gene expression was calculated using the ΔΔCt method. Primer sequences are listed in Supplemental Table 5.

The next test relates to IL9, IRF4, and SPI1 mRNA. The test is described as follows: Quantitative PCR of IL9, IRF4 and SPI1 in human Th9 cells (Figure 8C). To be noted: result in words. It is filed as cell-based. As for the experimental part:
For Th9 polarization, cultures were supplemented with IL-4 (10 ng/mL, PeproTech, catalog AF-200-04), TGF-β (1 ng/mL), and neutralizing anti–IFN-γ monoclonal antibody (10 μg/mL, clone B27, BioXcell, catalog BE0245). After 3 days of initial culture, cells were either collected for downstream assays or continued in extended culture with refreshed cytokines to maintain lineage commitment without antibodies. Th9 cells were collected at days 4, 5, and 6 for subsequent in vitro assays. For adoptive transfer studies, day 4–cultured Th9 cells were washed and prepared for intravenous injection.
as §1, §2

“And” between values parts separate entries of the source, which are not always exact repeats. Equal entries are not always repeated.

Consider anteiso-C15 Leu7 surfactin [EpA], for which, in the test with Th1 cells (EpA 10 μM, individual replicates, n = 4), the “IFN-γ expression under Th1 polarization” value is 80 and 84.2 and 74.8 and 80.3. In the test with Th1 cells (result in words), the “effect on Th1 polarization” value is “did not affect”. Moreover, the “Il9 mRNA expression (quantitative PCR)” value in test [1] (Figure 7B, EpA (10 µM) + Fatostatin (10 µM), individual replicates, (n = 3)) was 42.4796 and 40.5146 and 54.9024. The “Il9 mRNA expression in Th9 cells” value was 17.2536 and 18.9128 and 17.6178 in test [1] (Figure 7H, MigR1 vector, individual replicates, (n = 3)); 6.0458 and 5.242 and 5.497 in test [1] (Figure 7H, overexpressing SREBP1, individual replicates, (n = 3)); 2.765 and 2.875 and 2.532 in test [1] (Figure 7I, MigR1 vector, individual replicates, (n = 3)); 1.999 and 1.591 and 1.423 in test [1] (Figure 7I, overexpressing SREBP1, individual replicates, (n = 3)). The “EpA-induced Il9 and Tnf mRNA increase upon SREBP1 overexpression” value in test [1] (result in words) is on record as “markedly suppressed”. For the same substance, the “IL9, IRF4, SPI1 mRNA” value in the test with IL9, IRF4, and SPI1 mRNA is reported as “upregulated”.
